Laboratory results taken from PubChem BioAssay AID624129 (Sanford-Burnham Center for Chemical Genomics, 2012).
Calls of active or inactive are those of the source. The rule behind the calls is not given here.

Legend:
Assay in all cases: potency against CXCR6 with APJ panel – cell-based, beta-arrestin, DiscoveRx, uHTS hits, dose response (AID 624129)
[1] = target: Apelin receptor (Homo sapiens) (UniProt P35414); conditions: CXCR6 beta-arrestin (DiscoveRx) antagonist cell assay, APJ
[2] = target: C-C chemokine receptor type 6 (Homo sapiens) (UniProt P51684); conditions: CXCR6 beta-arrestin (DiscoveRx) antagonist cell assay
[3] = target: Beta-galactosidase (Escherichia coli) (UniProt Q8VNN2); conditions: CXCR6 beta-arrestin (DiscoveRx) antagonist cell assay, b-galactosidase
Beta-galactosidase (Escherichia coli), sequence (Q8VNN2 whole entry, looked up): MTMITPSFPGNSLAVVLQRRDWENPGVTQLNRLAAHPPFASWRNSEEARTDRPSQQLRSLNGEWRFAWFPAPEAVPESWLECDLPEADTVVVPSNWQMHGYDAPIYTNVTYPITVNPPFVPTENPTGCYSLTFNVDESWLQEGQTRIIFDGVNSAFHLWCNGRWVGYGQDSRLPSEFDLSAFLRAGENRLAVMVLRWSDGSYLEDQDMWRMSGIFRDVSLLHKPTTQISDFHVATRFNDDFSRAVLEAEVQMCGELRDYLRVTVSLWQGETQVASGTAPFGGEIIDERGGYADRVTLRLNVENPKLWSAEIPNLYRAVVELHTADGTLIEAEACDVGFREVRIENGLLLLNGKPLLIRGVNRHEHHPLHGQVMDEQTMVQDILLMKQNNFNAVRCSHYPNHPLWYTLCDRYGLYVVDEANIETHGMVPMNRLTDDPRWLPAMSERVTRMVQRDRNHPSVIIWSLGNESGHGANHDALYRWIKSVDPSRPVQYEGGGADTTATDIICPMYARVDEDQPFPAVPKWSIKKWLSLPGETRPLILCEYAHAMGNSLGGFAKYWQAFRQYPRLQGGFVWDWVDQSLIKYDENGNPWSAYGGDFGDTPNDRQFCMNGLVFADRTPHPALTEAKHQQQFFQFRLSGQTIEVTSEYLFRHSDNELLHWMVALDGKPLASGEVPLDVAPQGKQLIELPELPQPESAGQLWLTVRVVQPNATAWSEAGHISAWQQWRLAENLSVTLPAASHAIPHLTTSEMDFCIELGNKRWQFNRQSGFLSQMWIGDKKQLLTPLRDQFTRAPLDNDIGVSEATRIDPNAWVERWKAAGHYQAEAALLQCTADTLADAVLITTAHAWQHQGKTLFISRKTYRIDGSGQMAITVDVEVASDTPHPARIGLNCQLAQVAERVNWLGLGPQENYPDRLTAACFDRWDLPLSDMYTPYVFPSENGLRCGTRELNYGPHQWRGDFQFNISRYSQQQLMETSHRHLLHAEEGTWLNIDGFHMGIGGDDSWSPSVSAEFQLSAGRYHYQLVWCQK

[4] = target: C-X-C chemokine receptor type 6 (Homo sapiens) (UniProt O00574); conditions: CXCR6 beta-arrestin (DiscoveRx) antagonist cell assay; for inhibition: CXCR6, run 1, dose range 2, at 80 µM (top of the series)
C-X-C chemokine receptor type 6 (Homo sapiens), sequence (O00574 whole entry, looked up): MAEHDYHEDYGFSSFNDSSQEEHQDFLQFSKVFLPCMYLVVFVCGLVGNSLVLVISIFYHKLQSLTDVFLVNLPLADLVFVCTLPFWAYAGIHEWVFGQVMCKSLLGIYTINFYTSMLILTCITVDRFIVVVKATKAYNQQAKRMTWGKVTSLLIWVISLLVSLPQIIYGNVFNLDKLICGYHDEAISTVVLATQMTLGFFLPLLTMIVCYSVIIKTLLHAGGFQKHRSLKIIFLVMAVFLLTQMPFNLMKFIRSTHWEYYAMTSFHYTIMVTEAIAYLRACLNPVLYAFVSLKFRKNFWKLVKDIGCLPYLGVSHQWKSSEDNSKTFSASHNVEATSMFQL

[5] = dose range 1, mean IC50 across replicates
[6] = CCR6, dose range 1, mean IC50 across replicates
[7] = CXCR6, dose range 1, mean IC50 across replicates

SMILES	IC50 [1, 5] [µM]	IC50 ([1]; run 2, dose range 1) [µM]	IC50 ([1]; run 3, dose range 1) [µM]	IC50 [2, 6] [µM]	IC50 ([2]; CCR6, run 2, dose range 1) [µM]	IC50 ([3]; dose range 1)	IC50 [3, 5] [µM]	IC50 ([4]; CXCR6, dose range 1)	IC50 [4, 7] [µM]	inhibition [4] [%]	IC50 ([4]; CXCR6, run 2, dose range 1) [µM]	IC50 ([1]; dose range 1)	IC50 ([2]; CCR6, dose range 1)	IC50 ([4]; CXCR6, run 1, dose range 2) [µM]	IC50 ([4]; CXCR6, run 2, dose range 2) [µM]
N#CC(C#N)=C1C=CC=CN1/C(=C\c1ccco1)C(=O)c1ccc(Br)cc1	> 80	> 80	> 80	> 80	> 80	> 80 µM (inactive)	> 80	> 80 µM (inactive)	> 80	19.9	> 80	–	–	–	–
Cc1[nH][nH]c(=O)c1C(c1c(C)[nH][nH]c1=O)c1cn(Cc2ccc(Cl)c(Cl)c2)c2ccccc12	37	59.3	32.3	22.1	27.6	> 80 µM (inactive)	> 80	inactive	26.6	115	24.8	19.4 µM	16.6 µM	–	–
O=C(CSc1nc(-c2ccco2)cc(C(F)(F)F)n1)NCCCn1ccnc1	21.4	22.8	20.7	19.3	21.1	> 80 µM (inactive)	> 80	inactive	16.9	126	18.3	20.7 µM	17.6 µM	–	–
C=C1CC(COc2cc(=O)oc3ccccc23)(c2ccccc2)OC1=O (centres undefined)	9.89	7.31	11.3	6.81	7.45	> 80 µM (inactive)	> 80	7.8 µM	6.87	–	7.9	11 µM	6.18 µM	6.11	5.67
CC(=O)OCCNc1cc(SCc2ccco2)c2nonc2c1[N+](=O)[O-]	18.8	17.8	17.5	14	14.2	> 80 µM (inactive)	> 80	inactive	15.4	74.8	16.6	21.1 µM	13.8 µM	–	–
O=C1C(Cc2ccccc2)Nc2ncnc(N3CCN(c4ccccc4)CC3)c2N1Cc1ccc(Br)cc1 (centres undefined)	2.26	3.32	> 80	1.55	1.44	> 80 µM (inactive)	> 80	1.37 µM	1.23	–	0.993	1.2 µM	1.67 µM	1.42	1.13
CS(=O)(=O)c1sc(C#N)c2c1C(=O)CC(c1ccccc1)C2 (centres undefined)	68.7	> 80	> 80	37.9	48.5	> 80 µM (inactive)	> 80	inactive	45.5	73.2	32.1	68.7 µM	27.4 µM	–	–
O=[N+]([O-])c1c(NCCCO)cc(Sc2ccc(Cl)cc2)c2nonc12	> 80	> 80	> 80	12.9	23.2	> 80 µM (inactive)	> 80	inactive	11.3	–	> 80	> 80 µM (inactive)	2.58 µM	3.9	3.24
N#Cc1c(C#N)c(SSc2c(C#N)c(C#N)c(N)n2-c2ccccc2)n(-c2ccccc2)c1N	2.15	> 80	2.15	> 80	> 80	> 80 µM (inactive)	> 80	–	10.7	–	> 80	–	> 80 µM (inactive)	10.6	10.9
Cc1cnc(C(=O)Nc2cccc3cccnc23)cn1	> 80	> 80	> 80	28.6	> 80	> 80 µM (inactive)	> 80	inactive	22.4	–	> 80	–	28.6 µM	6.94	12
CS(=O)(=O)c1ccc(C(=O)OCc2nnc(-c3ccccc3)o2)cc1[N+](=O)[O-]	3.86	3.23	3.93	8.49	9.67	> 80 µM (inactive)	> 80	3.8 µM	3.17	–	3.64	4.43 µM	7.32 µM	3.23	2.03
COc1ccc(OC)c2sc(N(CCCN(C)C)C(=O)CCS(=O)(=O)c3ccccc3)nc12	19.6	18.2	19	11.3	12.3	> 80 µM (inactive)	> 80	inactive	12.5	114	10.6	21.7 µM	10.4 µM	–	–
O=C1C=CC(=O)N1c1ccccc1N1C(=O)C=CC1=O	> 80	> 80	> 80	> 80	> 80	> 80 µM (inactive)	> 80	> 80 µM (inactive)	> 80	42.9	> 80	–	–	–	–
CNc1cc(Cl)c2nonc2c1[N+](=O)[O-]	8.61	4.89	15.1	3.29	3.46	> 80 µM (inactive)	> 80	3.61 µM	3.39	–	4.12	5.88 µM	3.13 µM	3.02	2.83
CC(C)c1ccc(O)c(NC(=S)NC(=O)c2cccnc2)c1	9.87	10.6	10.4	10	9.43	inactive	51.9	inactive	14.9	–	20.7	8.65 µM	10.6 µM	12.7	8.67
CC1(C)CC(=O)C2=C(C1)OC1=C(C(=O)CC(C)(C)C1)C2c1ccc(O)cc1O	10.6	8.84	11.7	5.44	6.22	> 80 µM (inactive)	> 80	10.3 µM	9.86	–	9.24	11.2 µM	4.66 µM	9.08	10.8
COC(=O)c1ccc2c(c1)C(C)(C)C(/C=C/c1ccccc1O)=[N+]2C	15.9	14.1	17.3	11.3	12.3	24.2 µM	24.2	inactive	11.7	–	13.5	16.2 µM	10.3 µM	8.94	9.88
Cc1cc(Cl)n2c(nc3cc(F)c(F)cc32)c1C#N	> 80	> 80	> 80	9.8	12.5	> 80 µM (inactive)	> 80	inactive	24.8	–	53	–	7.09 µM	6.21	6.06
C/C(=N/NC(=O)c1ccc(C(C)(C)C)cc1)c1ccccn1	1.41	1.66	1.45	1.53	1.8	> 80 µM (inactive)	> 80	1.32 µM	1.18	–	1.79	1.12 µM	1.26 µM	0.9	0.719
CCS(=O)(=O)c1ncc(Cl)c(C(=O)Nc2ccc(S(=O)(=O)N3CCCC(C)C3)cc2)n1 (centres undefined)	8.75	8.93	8.02	7.16	7.39	> 80 µM (inactive)	> 80	9.52 µM	9.06	–	10.3	9.3 µM	6.92 µM	7.57	8.84
CCN(c1ccccc1)S(=O)(=O)c1ccc(NC(=O)c2nc(S(C)(=O)=O)ncc2Cl)cc1	16	15.3	16.4	11	10.3	> 80 µM (inactive)	> 80	10.8 µM	10.9	–	11.5	16.2 µM	11.6 µM	10.5	10.8
